# Test results published in publication PMC10226132, “First-in-Class Selective Inhibitors of the Lysine Acetyltransferase KAT8” (Journal of Medicinal Chemistry, 2023).
# Experiments:
# [1] = tested on: HeLa cells; assay: Cell cycle analysis by propidium iodide staining, HeLa; assay type: cell-based, human; conditions: 72 h
# Procedure: For the analysis of the progression of cells through cell cycle phases and sub-G1 peak identification, 24 h after plating, cells were treated with the different compounds. After 72 h, both floating and adherent cells were collected and fixed with cold 70% ethanol. At least 24 h after fixation, cells were incubated with 0.025 mg/mL Propidium Iodide for 15 min at room temperature and analyzed. For Annexin V analysis, 24 h after plating, cells were treated with 50 and 100 μM of the compounds. In the case of chloroquine experiments, 10 μM chloroquine (Sigma-Aldrich, A9165) was added 30 min before compounds. 72 h after treatment, both floating and adherent cells were collected and stained with an Annexin V-FITC apoptosis detection kit (ENZO #ALX-850-020-KI). Samples were incubated 15 min in the dark at rt, and 10,000 events were then analyzed.
# [2] = target: T1, KAT8 (Homo sapiens, UniProt Q9H7Z6); assay: SPR-based KAT8 binding assay; conditions: immobilized KAT8, 25 °C, read-out: equilibrium dissociation constant (KD)
# T1 construct: using the previously purified KAT8 (173–458, 5 nM); 6xHis tag with TEV protease cleavage site (N, cleaved yes); made in house; host or cells: E. coli BL21(DE3)
# T1 sequence (Q9H7Z6 173-458): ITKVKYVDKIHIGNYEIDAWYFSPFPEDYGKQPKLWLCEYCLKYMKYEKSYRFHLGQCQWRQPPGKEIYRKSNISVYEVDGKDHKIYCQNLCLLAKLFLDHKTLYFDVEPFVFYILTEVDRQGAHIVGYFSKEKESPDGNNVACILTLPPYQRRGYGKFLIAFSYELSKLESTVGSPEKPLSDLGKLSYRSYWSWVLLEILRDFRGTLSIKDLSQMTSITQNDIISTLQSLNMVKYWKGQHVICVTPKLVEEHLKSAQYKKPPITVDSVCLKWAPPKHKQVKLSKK
# Procedure: SPR analyses were performed on a Biacore 3000 optical biosensor (GE Healthcare) equipped with a research-grade CM5 sensor chip. KAT8 was immobilized (30 μg/mL in 10 mM sodium acetate, pH 4.5) at a flow rate of 10 μL/min by using a standard amine-coupling protocol to obtain a density of 12 kRU. One flow cell was left empty for background subtractions. Both compounds, dissolved in DMSO (100%), were diluted in assay buffer (150 mM NaCl, 10 mM HEPES pH 7.4, 0.005% Tween-20), always maintaining a final 1% DMSO concentration. Binding experiments were performed at 25 °C by using a flow rate of 30 μL/min, with 120 s monitoring of association and 200 s monitoring of dissociation. Regeneration of the surfaces was performed, when necessary, by a 10 s injection of 1 mM NaOH.
# [3] = tested on: U251 cells; assay: MTT cell proliferation assay, U251; assay type: cell-based, human; conditions: 10, 25, 50, 100 μM, 72 h
# From the text: (§1) Human commercially available AML U937, breast cancer MCF7, lung adenocarcinoma NCI-H460, H1299 and A-549, glioblastoma U251, B lymphocyte AHH1 cell lines were maintained in compete 10% foetal bovine serum (FBS,) RPMI 1640 (Euroclone, Milan, IT) medium. Human commercially available colon cancer HCT116 and HT29 lines and cervix adenocarcinoma HeLa cells were maintained in compete 10% FBS Dulbecco’s Modified Eagle Medium (DMEM) high glucose medium (Euroclone). L-Glutamine, FBS, and penicillin streptomycin mixture added to medium were obtained from Euroclone. All cell lines were cultured at 37 °C in a humidified atmosphere of 5% CO2:95% air and were tested for mycoplasma contamination routinely by RT-PCR.
# (§2) For analysis of cell proliferation, cells were plated in sextuplicate on 96-well plates in complete media. After 24 h, cells were exposed to different drugs for 72 h. The inhibitory effect of different drugs was assessed by MTT (Sigma, St. Louis, MO, USA) colorimetric assays as previously reported.[67] Aqueous DMSO (0.5% v/v) was used as a control (untreated). The results are reported as “viability of drug-treated cells/viability of untreated cells” × 100 and represent the average ±SD of three independent experiments. IC50 values were using fitted by nonlinear regression using GraphPad Prism 8.0.
# [4] = HPLC-based analysis of thiol reactivity; assay type: physicochemical; conditions: 0.5 mM compound, 2 mM DTT, BME or GSH, pH 7.5, 1, 8 or 24 h at room temperature
# Procedure: Compounds 19 and 34 were dissolved in a solution containing 100 mM NaCl and 40 mM Tris·HCl (pH 7.5) with the addition of DTT, BME, or GSH (each at 2 mM) to a final concentration of 0.5 mM and incubated for 1, 8, and 24 h at rt. HPLC analysis was then performed at three wavelengths (254, 286, and 395 nm) under the same conditions described in the “Chemistry” paragraph of the Experimental Section.
# [5] = tested on: AHH-1 cells; assay: Proliferation of noncancer B lymphocyte AHH-1 cells; assay type: cell-based, human; conditions: 72 h; for effect on proliferation of AHH-1 cells: 25, 50, 100, 200 μM; for IC50: Homo sapiens, AHH-1, NI = no inhibition at 200 µM
# From the text: as §1, §2
# [6] = target: T2, KAT3B (Homo sapiens, UniProt Q09472); assay: HotSpot KAT assay, KAT3B; assay type: biochemical; conditions: enzyme 1 nM, NI = no inhibition at 200 μM, mean ± SD of three independent experiments; for IC50: read-out: IC50 KAT3B (1 nM)
# T2 construct: KAT3B (aa 1284–1672, 1 nM); purchased Reaction Biology Corporation
# T2 sequence (Q09472 1284-1672): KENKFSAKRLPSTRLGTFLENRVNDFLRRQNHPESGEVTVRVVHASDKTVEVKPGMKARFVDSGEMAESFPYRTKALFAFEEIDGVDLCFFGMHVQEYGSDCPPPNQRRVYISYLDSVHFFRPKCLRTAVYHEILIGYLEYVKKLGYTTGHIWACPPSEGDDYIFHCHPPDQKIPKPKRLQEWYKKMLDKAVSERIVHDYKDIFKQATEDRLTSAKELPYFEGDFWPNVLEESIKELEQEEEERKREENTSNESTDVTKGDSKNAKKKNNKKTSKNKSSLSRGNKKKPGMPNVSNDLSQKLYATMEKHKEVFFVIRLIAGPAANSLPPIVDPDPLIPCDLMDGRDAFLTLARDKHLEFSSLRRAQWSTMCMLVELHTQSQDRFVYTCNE
Compound,"change in the different stages of cell cycle, HeLa [1]",Kd [2] [µM],antiproliferative activity in U251 [3],reaction with thiol-containing nucleophiles (HPLC) [4],effect on proliferation of AHH-1 cells [5],IC50 [5] [µM],IC50 KAT3B (1 nM) [6],IC50 [6] [µM]
"CC1=NN(c2ccc(C(=O)O)cc2)C(=O)/C1=C\c1ccc[nH]1 [Compound 19, (Z)-4-(4-((1H-Pyrrol-2-yl)methylene)-3-methyl-5-oxo-4,5-dihydro-1H-pyrazol-1-yl)benzoic Acid]",no significative change,4.94 ± 0.18,neither inhibitor had any effect,no evidence of reaction,did not significantly affect the proliferation,> 200,no inhibition at 200 μM,> 200
"O=C(O)c1ccc(N2N=C(c3ccccc3)/C(=C/c3ccc[nH]3)C2=O)cc1 [Compound 34, (Z)-4-(4-((1H-Pyrrol-2-yl)methylene)-5-oxo-3-phenyl-4,5-dihydro-1H-pyrazol-1-yl)benzoic Acid]",no significative change,2.04 ± 0.24,neither inhibitor had any effect,no evidence of reaction,did not significantly affect the proliferation,> 200,,> 200
